Our source for the IC50 values is US9862711B2, “Pyrazine derivatives as phosphatidylinositol 3-kinase inhibitors” (NOVARTIS AG, priority 2014, dated 2018).

One experiment has as its target PI 3-kinase alpha (Homo sapiens (Human), UniProt P42336). Nature of the experiment: Cellular p-Akt (S473) SureFire assay, Rat-1_PI3Kalpha cells (Assay H). It is filed as cell-based. The conditions noted are these: p-AKT (Ser473) in Rat-1 cells expressing myr-HA-hp110 alpha, 1 h compound; read-out: Assay H PI3Kα IC50. An excerpt: (§1) Cellular Assays for PI 3-Kinase Alpha (H), Beta (I) and Delta (J)
(§2) AlphaScreen (Amplified Luminescent Proximity Homogeneous Assay, ALPHA, Perkin Elmer) is a non-radioactive bead-based proximity assay technology to study biomolecular interactions in a homogenous microtiter plate format. The brand name SureFire denotes AlphaScreen assays that are adapted to quantify the phosphorylation of endogenous cellular proteins in cell lysates, by using matched antibody pairs, which consist of an anti-phospho-kinase and an anti-kinase antibody. The assay allows characterization of kinase signaling in cells as well as measurement of kinase inhibitor effects.
(§3) Rat-1 cell lines stably overexpressing activated PI 3-kinase class I isoforms Rat-1 pBABEpuro Myr-HA-hp110 delta clone 5 (Rat-1_PI3Kdelta) and Rat-1 pBABEpuro Myr-HA-hp110 alpha clone 6 (Rat-1_PI3Kalpha) and Rat-1 pBABEpuro Myr-HA-hp110 beta (Rat-1_PI3beta) were cultivated in complete growth medium (DMEM high glucose, 10% (v/v) fetal bovine serum, 1% (v/v) MEM NEAA, 10 mM HEPES, 2 mM L-glutamine, puromycin (10 μg/mL for Rat-1_PI3Kdelta and Rat-1_PI3Kalpha, 4 ug/mL for Rat-1_PI3beta), 1% (v/v) Pen/Strep) to 90% confluency at 37° C./5% CO2/90% humidity in a humidified CO2 incubator and were split twice a week. The following materials were used for p-AKT(5473) detection in Rat-1 cell lysates: Dulbecco's modified Eagle's medium (DMEM) high glucose (Gibco Invitrogen, Basel, Switzerland, Cat. No. 41965), heat inactivated fetal bovine serum, qualified (HI FBS; Gibco Invitrogen, Basel, Switzerland, Lot. No. 16140), MEM non essential amino acids (NEAA; Gibco Invitrogen, Basel, Switzerland, Cat. No. 11140), HEPES (Gibco Invitrogen, Basel, Switzerland, Cat. No. 15630), penicillin/streptomycin (Pen/Strep, 100×; Gibco Invitrogen, Basel, Switzerland, Cat. No. 15140-122), L-glutamine (Gibco Invitrogen, Basel, Switzerland, Cat. No. 25030), puromycin (Sigma Aldrich, Buchs, Switzerland, Cat. No. P9620), DMSO (MERCK, Dietikon, Switzerland, Cat. No. 8.02912.2500), H2O, MilliQ-H2O unless otherwise stated (MILLIPORE QGARDOOR1, Millipore, Zug, Switzerland), bovine serum albumine (BSA; Sigma Aldrich, Buchs, Switzerland Cat. No. A8412), SureFire p-Akt 1/2 (Ser473) Assay Kit (Perkin Elmer, Schwerzenbach, Switzerland, Cat. No. TGRAS50K).
(§4) The p-Akt (S473) SureFire assay measures the phosphorylation of endogenous cellular Akt 1/2 at Ser473 in cell lysates. Using Rat-1 cells stably expressing myr-HA-tagged versions of the human PI3Kdelta, PI3Kalpha, or PI3Kbeta p110 catalytic subunit isoforms, the assay was developed as a two-plate protocol in a 384-well format.
(§5) For compound testing, the cells were seeded at a density of 4000 (Rat-1_PI3Kdelta), 7500 (Rat-1_PI3Kalpha), or 6200 (Rat-1_PI3Kbeta) cells in 20 μl complete growth medium into cell culture treated 384-well plates and were grown at 37° C./5% CO2/90% humidity for 24 h. Shortly before compound transfer, the complete medium was removed, 30 μl assay buffer (DMEM high glucose, 1×MEM NEAA, 10 mM HEPES, 2 mM L-glutamine, 0.1% (w/v) BSA) was added and 10 μl of the compound predilutions were transferred to the cells. After treatment with compound for 1 h, the cells were lysed by the addition of 20 μl lysis buffer supplemented with 0.24% (w/v) BSA. Detection of p-AKT (Ser473) was performed with the SureFire p-Akt 1/2 (Ser473) Assay Kit according to the manufacturer's instructions using 5 ul of cell lysate in a total detection volume of 12 μl.
(§6) IC50 values of the percentage inhibition of each compound at 8 concentrations (usually 10, 3.0, 1.0, 0.3, 0.1, 0.030, 0.010 and 0.003 μM) n=2 were derived by fitting a sigmoidal dose-response curve to a plot of assay readout over inhibitor concentration as described. All fits were performed with the program XLfit4 (ID Business Solutions, Guildford, UK).

In the next experiment the target is PI 3-kinase beta (Homo sapiens (Human), UniProt P42338). Nature of the experiment: Cellular p-Akt (S473) SureFire assay, Rat-1_PI3Kbeta cells (Assay I). It is filed as cell-based. The conditions noted are these: p-AKT (Ser473) in Rat-1 cells expressing myr-HA-hp110 beta, 1 h compound; read-out: Assay I PI3Kβ IC50.
PI 3-kinase beta, sequence (P42338 whole entry): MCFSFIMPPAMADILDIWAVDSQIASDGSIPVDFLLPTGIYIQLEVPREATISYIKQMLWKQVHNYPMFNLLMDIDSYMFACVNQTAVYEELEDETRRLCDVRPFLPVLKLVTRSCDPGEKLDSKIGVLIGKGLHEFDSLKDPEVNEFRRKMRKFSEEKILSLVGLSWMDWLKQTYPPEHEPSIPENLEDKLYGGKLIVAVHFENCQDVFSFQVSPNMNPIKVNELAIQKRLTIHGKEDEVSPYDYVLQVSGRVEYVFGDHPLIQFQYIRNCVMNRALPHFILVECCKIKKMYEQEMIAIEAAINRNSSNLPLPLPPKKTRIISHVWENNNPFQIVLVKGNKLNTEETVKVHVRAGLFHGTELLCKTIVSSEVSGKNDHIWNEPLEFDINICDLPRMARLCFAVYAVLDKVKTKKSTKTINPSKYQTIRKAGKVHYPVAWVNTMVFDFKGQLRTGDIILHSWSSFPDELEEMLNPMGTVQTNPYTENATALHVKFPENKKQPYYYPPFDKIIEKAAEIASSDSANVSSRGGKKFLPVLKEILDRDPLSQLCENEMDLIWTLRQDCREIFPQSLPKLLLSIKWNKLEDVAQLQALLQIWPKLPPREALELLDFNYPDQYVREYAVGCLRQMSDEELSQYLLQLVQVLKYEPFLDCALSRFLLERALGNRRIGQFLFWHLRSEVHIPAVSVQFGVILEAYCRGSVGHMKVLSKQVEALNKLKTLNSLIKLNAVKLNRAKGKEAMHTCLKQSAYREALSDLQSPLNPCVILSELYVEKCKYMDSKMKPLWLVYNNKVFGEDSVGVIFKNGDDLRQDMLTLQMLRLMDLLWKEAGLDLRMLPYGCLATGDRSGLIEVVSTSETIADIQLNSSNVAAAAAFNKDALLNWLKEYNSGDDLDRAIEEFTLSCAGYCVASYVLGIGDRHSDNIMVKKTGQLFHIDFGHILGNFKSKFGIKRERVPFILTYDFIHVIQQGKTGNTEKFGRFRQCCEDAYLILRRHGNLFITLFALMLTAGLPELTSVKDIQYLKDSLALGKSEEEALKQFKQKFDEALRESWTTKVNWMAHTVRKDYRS
PI 3-kinase beta, sequence (Q63787 whole entry partner): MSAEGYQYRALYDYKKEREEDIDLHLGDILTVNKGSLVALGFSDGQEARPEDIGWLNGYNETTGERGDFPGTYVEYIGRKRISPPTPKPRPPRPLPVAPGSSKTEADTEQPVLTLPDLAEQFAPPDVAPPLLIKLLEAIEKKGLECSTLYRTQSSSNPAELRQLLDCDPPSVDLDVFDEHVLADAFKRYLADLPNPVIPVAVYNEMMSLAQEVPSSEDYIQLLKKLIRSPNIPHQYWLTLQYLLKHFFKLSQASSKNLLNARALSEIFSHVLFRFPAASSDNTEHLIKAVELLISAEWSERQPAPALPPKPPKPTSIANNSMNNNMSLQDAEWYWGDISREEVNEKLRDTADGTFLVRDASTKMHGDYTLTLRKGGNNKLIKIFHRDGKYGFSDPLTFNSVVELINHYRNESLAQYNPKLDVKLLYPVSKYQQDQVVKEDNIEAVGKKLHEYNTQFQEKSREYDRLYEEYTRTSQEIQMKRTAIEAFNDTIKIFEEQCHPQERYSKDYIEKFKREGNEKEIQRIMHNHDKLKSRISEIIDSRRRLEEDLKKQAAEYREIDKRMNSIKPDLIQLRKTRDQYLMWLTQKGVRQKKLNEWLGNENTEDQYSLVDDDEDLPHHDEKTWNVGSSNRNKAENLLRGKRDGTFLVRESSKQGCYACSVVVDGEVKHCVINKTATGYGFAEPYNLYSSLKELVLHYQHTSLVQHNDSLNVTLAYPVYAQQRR
Source text: as §1, §2, §3, §4, §5, §6

pIC50: −log10 of the molar value. Some results are limits rather than exact numbers.

PI 3-kinase alpha, sequence (P42336 whole entry): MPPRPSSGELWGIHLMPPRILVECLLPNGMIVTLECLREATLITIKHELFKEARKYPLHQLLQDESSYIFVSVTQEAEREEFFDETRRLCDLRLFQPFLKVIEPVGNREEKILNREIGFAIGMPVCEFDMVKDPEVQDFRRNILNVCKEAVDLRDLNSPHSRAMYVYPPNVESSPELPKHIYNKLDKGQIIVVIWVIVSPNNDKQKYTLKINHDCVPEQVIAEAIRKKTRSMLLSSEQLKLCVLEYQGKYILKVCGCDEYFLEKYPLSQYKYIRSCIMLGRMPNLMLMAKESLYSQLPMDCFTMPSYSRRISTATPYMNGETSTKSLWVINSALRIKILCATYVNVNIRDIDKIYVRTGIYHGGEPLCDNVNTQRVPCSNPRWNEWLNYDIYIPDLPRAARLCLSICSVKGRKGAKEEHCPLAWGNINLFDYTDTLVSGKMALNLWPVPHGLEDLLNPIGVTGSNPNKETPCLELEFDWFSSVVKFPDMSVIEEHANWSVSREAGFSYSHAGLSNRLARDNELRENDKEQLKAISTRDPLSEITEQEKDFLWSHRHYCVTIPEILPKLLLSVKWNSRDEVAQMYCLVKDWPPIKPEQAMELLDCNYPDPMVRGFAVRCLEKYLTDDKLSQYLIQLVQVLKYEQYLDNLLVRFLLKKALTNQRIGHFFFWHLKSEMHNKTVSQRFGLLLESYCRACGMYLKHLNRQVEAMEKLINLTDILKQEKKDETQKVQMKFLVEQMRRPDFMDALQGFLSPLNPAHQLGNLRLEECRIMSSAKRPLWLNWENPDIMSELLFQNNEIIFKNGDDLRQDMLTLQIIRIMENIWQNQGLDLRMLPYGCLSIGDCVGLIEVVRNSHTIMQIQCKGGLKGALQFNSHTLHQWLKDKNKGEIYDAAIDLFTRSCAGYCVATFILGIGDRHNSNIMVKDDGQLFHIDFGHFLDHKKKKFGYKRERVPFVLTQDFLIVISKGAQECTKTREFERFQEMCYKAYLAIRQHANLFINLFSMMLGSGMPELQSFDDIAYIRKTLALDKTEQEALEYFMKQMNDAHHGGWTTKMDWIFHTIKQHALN
PI 3-kinase alpha, sequence (Q63787 whole entry partner): as the sequence (Q63787 whole entry partner) above

For the compound `Cc1ccc(S(=O)(=O)NCC(C)(C)O)cc1-c1cncc(-c2cn(C)nc2C)n1` [Example 2, 3-[6-(1,3-Dimethyl-1H-pyrazol-4-yl)-pyrazin-2-yl]-N-(2-hydroxy-2-methyl-propyl)-4-methyl-benzenesulfonamide], the pIC50 – broadly, the IC50 on a negative log10 scale, so that one unit is a factor of ten – is 6.35 on PI 3-kinase alpha and 6.11 at PI 3-kinase beta.

With `Cc1ccc(S(=O)(=O)NCCC(C)(C)O)cc1-c1cncc(-c2cn(C)nc2C)n1` [Example 3, 3-[6-(1,3-Dimethyl-1H-pyrazol-4-yl)-pyrazin-2-yl]-N-(3-hydroxy-3-methyl-butyl)-4-methyl-benzenesulfonamide], the pIC50 at PI 3-kinase alpha was 5.99; at PI 3-kinase beta it was 5.50.

`Cc1ccc(S(=O)(=O)NCC2(C)COC2)cc1-c1cncc(-c2cn(C)nc2C)n1` [Example 4, Trans 3-[6-(1,3-Dimethyl-1H-pyrazol-4-yl)-pyrazin-2-yl]-4-methyl-N-(3-methyl-oxetan-3-ylmethyl)-benzenesulfonamide]: the figures for the pIC50 at PI 3-kinase alpha and on PI 3-kinase beta were 6.53 and 6.08, respectively.

Consider `Cc1ncc(-c2cncc(-c3cc(S(=O)(=O)N[C@H]4CC[C@H](O)CC4)ccc3C)n2)s1` [Example 5, Trans N-(4-Hydroxycyclohexyl)-4-methyl-3-(6-(2-methylthiazol-5-yl)pyrazin-2-yl)benzenesulfonamide], for which the pIC50 is 6.08 at PI 3-kinase alpha and 5.03 on PI 3-kinase beta.

On to `Cc1ccc(S(=O)(=O)NCCC(C)(C)O)cc1-c1cncc(-c2cnn(CCN3CCOCC3)c2)n1` [Example 9, N-(3-Hydroxy-3-methyl-butyl)-4-methyl-3-{6-[1-(2-morpholin-4-yl-ethyl)-1H-pyrazol-4-yl]-pyrazin-2-yl}-benzenesulfonamide], for which the results for the pIC50 on PI 3-kinase alpha and at PI 3-kinase beta were 5.61 and 5.16, respectively.

For the compound `Cc1ccc(S(=O)(=O)NCCC(C)(C)O)cc1-c1cncc(-c2cn(CCN3CCOCC3)nc2C)n1` [Example 10, N-(3-Hydroxy-3-methyl-butyl)-4-methyl-3-{6-[3-methyl-1-(2-morpholin-4-yl-ethyl)-1H-pyrazol-4-yl]-pyrazin-2-yl}-benzenesulfonamide], the pIC50 on PI 3-kinase alpha is 5.51; at PI 3-kinase beta, 5.42.

Consider `Cc1ccc(S(=O)(=O)N[C@H]2CC[C@H](O)CC2)cc1-c1cncc(-c2cccnc2)n1` [Example 11, Trans N-(4-Hydroxy-cyclohexyl)-4-methyl-3-(6-pyridin-3-yl-pyrazin-2-yl)-benzenesulfonamide], for which the negative-log IC50 (pIC50) on PI 3-kinase alpha was 5.77; on PI 3-kinase beta, below 5.00.
